Assay results: patent publication US11104648B2, “Pyrazole derivative” (Zhejiang Research Institute of Chemical Industry Co., Ltd., priority 2018, dated 2021)
Read-outs that look alike come from different tables or passages of the source.

Assays:
Format in all cases: in vivo
[1] = test system: Tetranychus cinnabarinus Nymphs; assay: Activity assay of Tetranychus cinnabarinus nymphs (spray on broad bean leaves)
In short: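 Compound in DMF (≤10%) diluted in 1‰ Tween 80 water was sprayed onto broad bean leaves carrying nymphs hatched from eggs laid by female adults over 24 h. Kept at 26±2° C., 70%–80% humidity, 16 h light; mortality (no response to touch) assessed after 48 h, three replicates with blank control.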

[2] = test system: adult Tetranychus cinnabarinus; assay: Activity assay of adult Tetranychus cinnabarinus (whole-plant spray on bean seedlings); conditions: 48 h; for pest or weed control at 1.25 µg/mL: concentration 1.25 mg/L
In short: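 Bean seedlings at two-true-leaf stage, infested with adult mites and base count taken, sprayed whole-plant with compound in DMF (≤10%) diluted in 1‰ Tween 80. Three replicates per treatment kept in standard observation room. Surviving mites counted at 48 h to give death rate.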

[3] = test system: Eggs of Tetranychus Cinnabarinus; assay: Activity assay of eggs of Tetranychus cinnabarinus (spray method, ovicidal); conditions: Tetranychus cinnabarinus; for pest or weed control at 2 µg/mL: concentration 2 mg/L
In short: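 Female mites laid eggs on broad bean leaves for 24 h, adults removed, eggs sprayed with compound in DMF (≤10%)/1‰ Tween 80. Held at 26±2° C, 70–80% humidity, 16 h light; unhatched eggs counted dead once blank control hatched. Three replicates.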

[4] = 48 h, concentration 2.5 mg/L, read-out: nymph-killing activity
[5] = concentration 2.5 mg/L, read-out: adult mite-killing activity
[6] = concentration 5 mg/L, spray, non-incubated eggs counted as dead, read-out: ovicidal activity
[7] = concentration 2.5 mg/L, 48 h, read-out: nymph-killing activity
[8] = 48 h, concentration 2 mg/L, read-out: nymph-killing activity
[9] = 48 h, nymphs, concentration 0.5 mg/L, parallel determination, read-out: Death rate (%)
[10] = adult mites, parallel determination, read-out: Death rate (%)
[11] = read-out: adult mite-killing activity
[12] = spray, read-out: ovicidal activity
[13] = eggs, parallel determination, read-out: Death rate (%)

Compound | pest or weed control at 2.5 µg/mL [1, 4] [%] | pest or weed control at 2.5 µg/mL [2, 5] [%] | pest or weed control at 5 µg/mL [3, 6] [%] | further results
C=CC(=O)OCO/C(=C(/C#N)c1ccc(C(C)(C)C)cc1)c1cc(C)nn1C [Compound 17] | ≥ 95 | ≥ 90 | ≥ 90 | 
CCn1nc(C)cc1/C(OC(C)OC(=O)C(F)(F)F)=C(\C#N)c1ccc(C(C)(C)C)cc1 (stereo not drawn) [Compound 263] | ≥ 95 | ≥ 90 | ≥ 90 | 
CCC(C)(C)C(=O)OC(C)O/C(=C(/C#N)c1ccc(C(C)(C)C)cc1)c1cc(C)nn1C (stereo not drawn) [Compound 41] | ≥ 95 | ≥ 90 | ≥ 90 | 
CCCCC(=O)OCO/C(=C(/C#N)c1ccc(C(C)(C)C)cc1)c1c(C)c(C)nn1C [Compound 156] | ≥ 95 | ≥ 90 | ≥ 90 | 
COCC(=O)OCO/C(=C(/C#N)c1ccc(C(C)(C)C)cc1)c1cc(C)nn1C [Compound 8] | ≥ 95 | ≥ 90 | ≥ 90 | 
CCn1nc(C)cc1/C(OCOC(=O)Cc1ccccc1)=C(\C#N)c1ccc(C(C)(C)C)cc1 [Compound 240] |  | ≥ 90 | ≥ 90 | pest or weed control at 2.5 µg/mL [1, 7]: ≥ 95%
CCn1nc(C)c(Cl)c1/C(OCOC(=O)C1CCCCC1)=C(\C#N)c1ccc(C(C)(C)C)cc1 [Compound 311] | ≥ 95 | ≥ 90 | ≥ 90 | 
Cc1cc(/C(OCOC(=O)CC(C)C)=C(\C#N)c2ccc(C(C)(C)C)cc2)n(C)n1 [Compound 7] | ≥ 95 | ≥ 90 | ≥ 90 | 
CCCCC(=O)OC(C)O/C(=C(/C#N)c1ccc(C(C)(C)C)cc1)c1c(C)c(C)nn1C (stereo not drawn) [Compound 181] | ≥ 95 | ≥ 90 | ≥ 90 | 
CCn1nc(C)cc1/C(OCOC(=O)CSC)=C(\C#N)c1ccc(C(C)(C)C)cc1 [Compound 235] | ≥ 95 | ≥ 90 | ≥ 90 | 
CCn1nc(C)c(C)c1/C(OC(C)OC(=O)COC)=C(\C#N)c1ccc(C(C)(C)C)cc1 (stereo not drawn) [Compound 408] | ≥ 95 | ≥ 90 | ≥ 90 | 
CCC(=O)OC(C)O/C(=C(/C#N)c1ccc(C(C)(C)C)cc1)c1cc(C)nn1CC (stereo not drawn) [Compound 252] | ≥ 95 | ≥ 90 | ≥ 90 | pest or weed control at 2 µg/mL [1, 8]: ≥ 90%; pest or weed control at 0.5 µg/mL [1, 9]: 100%; pest or weed control at 1.25 µg/mL [2, 10]: 100%; pest or weed control at 1.25 µg/mL [2, 11]: ≥ 90%; pest or weed control at 2 µg/mL [3, 12]: ≥ 90%; pest or weed control at 2 µg/mL [3, 13]: 100%
CCn1nc(C)cc1/C(OC(C)OC(=O)OC(C)C)=C(\C#N)c1ccc(C(C)(C)C)cc1 (stereo not drawn) [Compound 582] | ≥ 95 | ≥ 90 | ≥ 90 | 
C=CC(=O)OCO/C(=C(/C#N)c1ccc(C(C)(C)C)cc1)c1c(Cl)c(C)nn1CC [Compound 317] | ≥ 95 | ≥ 90 | ≥ 90 | 
CCCCC(=O)OC(C)O/C(=C(/C#N)c1ccc(C(C)(C)C)cc1)c1cc(C)nn1C (stereo not drawn) [Compound 31] | ≥ 95 | ≥ 90 | ≥ 90 | 
CCn1nc(C)c(C)c1/C(OCOC(=O)C(C)(C)CC)=C(\C#N)c1ccc(C(C)(C)C)cc1 [Compound 391] | ≥ 95 | ≥ 90 | ≥ 90 | 

Compound | pest or weed control at 2.5 µg/mL [1, 4] [%] | pest or weed control at 2.5 µg/mL [2, 5] [%] | pest or weed control at 5 µg/mL [3, 6] [%] | further results
CCn1nc(C)cc1/C(OC(C)OC(=O)OCCSC)=C(\C#N)c1ccc(C(C)(C)C)cc1 (stereo not drawn) [Compound 599] | ≥ 95 | ≥ 90 | ≥ 90 | 
CCn1nc(C)c(Cl)c1/C(OCOC(C)=O)=C(\C#N)c1ccc(C(C)(C)C)cc1 [Compound 301] | ≥ 95 | ≥ 90 | ≥ 90 | pest or weed control at 2 µg/mL [1, 8]: ≥ 90%; pest or weed control at 0.5 µg/mL [1, 9]: 90%; pest or weed control at 1.25 µg/mL [2, 10]: 90%; pest or weed control at 1.25 µg/mL [2, 11]: ≥ 90%; pest or weed control at 2 µg/mL [3, 12]: ≥ 90%; pest or weed control at 2 µg/mL [3, 13]: 95%
CCn1nc(C)c(Cl)c1/C(OCOC(=O)CF)=C(\C#N)c1ccc(C(C)(C)C)cc1 [Compound 312] |  |  |  | pest or weed control at 2.5 µg/mL ([1]; 48 h, read-out: nymph-killing activity): ≥ 95%; pest or weed control at 2.5 µg/mL [2, 11]: ≥ 90%; pest or weed control at 5 µg/mL ([3]; read-out: ovicidal activity): ≥ 90%
CCn1nc(C)cc1/C(OC(C)OC(=O)OCCCl)=C(\C#N)c1ccc(C(C)(C)C)cc1 (stereo not drawn) [Compound 590] | ≥ 95 | ≥ 90 | ≥ 90 | 
Cc1nn(C)c(/C(OCOC(=O)c2ccccc2)=C(\C#N)c2ccc(C(C)(C)C)cc2)c1C [Compound 164] | ≥ 95 | ≥ 90 | ≥ 90 | 
COCC(=O)OC(C)O/C(=C(/C#N)c1ccc(C(C)(C)C)cc1)c1c(Cl)c(C)nn1C (stereo not drawn) [Compound 108] | ≥ 95 | ≥ 90 | ≥ 90 | 
CCCC(=O)OC(C)O/C(=C(/C#N)c1ccc(C(C)(C)C)cc1)c1c(C)c(C)nn1CC (stereo not drawn) [Compound 403] | ≥ 95 | ≥ 90 | ≥ 90 | 
COC(=O)OCO/C(=C(/C#N)c1ccc(C(C)(C)C)cc1)c1cc(C)nn1C [Compound 451] | ≥ 95 | ≥ 90 | ≥ 90 | 
CCn1nc(C)c(Cl)c1/C(OCOC(=O)Cc1ccccc1)=C(\C#N)c1ccc(C(C)(C)C)cc1 [Compound 315] |  | ≥ 90 | ≥ 90 | pest or weed control at 2.5 µg/mL [1, 7]: ≥ 95%
Cc1cc(/C(OCOC(=O)OC(C)C)=C(\C#N)c2ccc(C(C)(C)C)cc2)n(C)n1 [Compound 454] | ≥ 95 | ≥ 90 | ≥ 90 | 
Cc1nn(C)c(/C(OC(C)OC(=O)c2ccccc2)=C(\C#N)c2ccc(C(C)(C)C)cc2)c1Cl (stereo not drawn) [Compound 114] | ≥ 95 | ≥ 90 | ≥ 90 | 
COCCOC(=O)OC(C)O/C(=C(/C#N)c1ccc(C(C)(C)C)cc1)c1cc(C)nn1C (stereo not drawn) [Compound 500] | ≥ 95 | ≥ 90 | ≥ 90 | 
CCn1nc(C)cc1/C(OCOC(=O)c1ccccc1)=C(\C#N)c1ccc(C(C)(C)C)cc1 [Compound 239] | ≥ 95 | ≥ 90 | ≥ 90 | 
COCCOC(=O)OCO/C(=C(/C#N)c1ccc(C(C)(C)C)cc1)c1cc(C)nn1C [Compound 468] | ≥ 95 | ≥ 90 | ≥ 90 | 
CCSC(=O)OCO/C(=C(/C#N)c1ccc(C(C)(C)C)cc1)c1cc(C)nn1C [Compound 480] | ≥ 95 | ≥ 90 | ≥ 90 | 
CSCC(=O)OCO/C(=C(/C#N)c1ccc(C(C)(C)C)cc1)c1c(C)c(C)nn1C [Compound 160] | ≥ 95 | ≥ 90 | ≥ 90 | 
